# Literature values, collected in US20070298135A1, “TOPICAL HERBAL FORMULATIONS” (BIOBOTANIC CORP., priority 2006, published 2007).
compound,measurement,setting,value
C[C@@H]1CC[C@@]2(OC1)O[C@H]1C[C@H]3[C@@H]4CC=C5C[C@@H](O[C@@H]6O[C@H](CO)[C@@H](O[C@@H]7O[C@@H](C)[C@H](O)[C@@H](O)[C@H]7O)[C@H](O)[C@H]6O[C@@H]6O[C@@H](C)[C@H](O)[C@@H](O)[C@H]6O)CC[C@]5(C)[C@H]4CC[C@]3(C)[C@H]1[C@@H]2C [Doscin],solubility in lipophilic organic solvent,lipophilic organic solvent,insoluble
same,solubility in polar liquid media,"methanol, ethanol, n-butanol, water, hydrate methanol and ethanol, soluble = at least 0.1 mg/ml (w/v) at about 25° C.",soluble
